{"source": "paper PMC5665883", "about": "“Antithrombotic properties of JJ1, a potent and novel thrombin inhibitor” (Scientific Reports, 2017)", "key": {"human plasma [1]": {"tested_on": "human plasma", "experiment": "In vitro PT clotting time", "type": "biochemical", "details": "at the maximum antithrombotic dose"}, "human plasma [2]": {"tested_on": "human plasma", "experiment": "In vitro aPTT clotting time", "type": "biochemical", "details": "at the maximum antithrombotic dose"}, "Urokinase": {"biological_target": "Urokinase (Homo sapiens, UniProt P00749)", "experiment": "Chromogenic substrate assay, Ki (Dixon)", "type": "biochemical"}, "[3]": {"experiment": "FeCl3-induced arterial thrombosis model", "type": "in vivo, C57BL/6 mice", "details": "mice, i.v.", "method": "The FeCl3-induced thrombosis mouse model was established as previously described. Male C57BL/6 mice were fasted overnight and were administered JJ1 in DMSO by intravenous injection. Then, mice were anesthetized using 3% isoflurane (Forane®, Choongwae Pharma. Corp., Seoul, Korea) and injected intravenously with 0.1 mL 0.1% rhodamine 6 G (Sigma). A testicular artery (200 μm in diameter) was carefully exposed and a cotton thread (200 μm in diameter) saturated with 0.25 mol/L FeCl3 was applied to the adventitial surface. After 5 min, the cotton thread was removed, and the wound was flushed with saline solution. Thrombus formation was monitored at 35 °C by 3-dimensional imaging as previously described. The size and time of thrombus formation were monitored, and the findings were scored as follows: no thrombus, 0; small thrombus (50 μm × 75 μm), 1; medium-sized thrombus (100 μm × 150 μm), 2; large thrombus (200 μm × 300 μm), 3. The time from FeCl3-mediated endothelial injury to occlusion of the testicular artery by a large thrombus was measured."}, "[4]": {"experiment": "Organ injury markers (biochemical safety parameters)", "type": "in vivo, C57BL/6 mice", "parameters": "BUN: unit not given here", "method": "The safety of JJ1 is another promising feature. Animal safety markers such as aspartate transaminase (AST) and alanine transaminase (ALT) (markers of hepatic injury) and creatinine and blood urea nitrogen (BUN) (markers of renal injury) were assessed with blood samples obtained at 48 h after JJ1 injection. […] Serum levels of AST, ALT, BUN, and creatinine were measured using commercial assay kits (Pointe Scientific, Linclon Park, MI)."}, "Protein Ca": {"biological_target": "T1, Protein Ca (Homo sapiens, UniProt P04070)", "T1 construct": "thrombin versus trypsin, factor Xa, elastase, plasmin, protein Ca, streptokinase, tPA, and urokinase", "T1 sequence (P04070 212-450 limits assumed)": "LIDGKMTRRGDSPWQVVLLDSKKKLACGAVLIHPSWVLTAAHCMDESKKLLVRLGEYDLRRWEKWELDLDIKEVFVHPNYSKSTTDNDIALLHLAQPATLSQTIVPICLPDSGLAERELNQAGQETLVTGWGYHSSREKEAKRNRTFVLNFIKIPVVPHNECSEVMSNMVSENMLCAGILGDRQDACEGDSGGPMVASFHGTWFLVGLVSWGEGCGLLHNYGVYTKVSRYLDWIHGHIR", "T1 sequence (P04070 43-197 limits assumed)": "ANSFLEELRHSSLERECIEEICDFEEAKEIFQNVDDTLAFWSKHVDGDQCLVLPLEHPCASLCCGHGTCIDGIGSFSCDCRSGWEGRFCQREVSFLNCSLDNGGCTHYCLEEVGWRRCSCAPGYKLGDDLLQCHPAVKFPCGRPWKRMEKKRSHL", "experiment": "Chromogenic substrate assay, Ki (Dixon)", "type": "biochemical"}, "[5]": {"experiment": "Pharmacokinetics after i.v. injection", "type": "in vivo", "details": "mouse, plasma, iv, male C57BL/6 mice, 2 mg/kg, fasting", "method": "The penile veins of male C57BL/6 mice were injected with 2 mg/kg JJ1. Approximately 50 μL of blood was obtained from the tail vein immediately before and at 5, 15, 30, 60, and 180 min after injection; 80 μL acetonitrile and internal standard solution (reserpine) were then added to these samples, and plasma samples (10 μL) were prepared by centrifugation of the blood at 13,000 rpm for 15 min at 4 °C. An aliquot (2 μL) of the supernatant was then injected into an HPLC column. The pharmacokinetic parameters were determined using the standard non-compartmental method. The area under the curve for serum was calculated using the log linear trapezoidal method on WinNonlin (version 2.0; Scientific Consulting, KY, USA). The samples were analyzed using an Accela^TM LC system coupled to a TSQ Vantage triple quadrupole mass spectrometer (Thermo Fisher Scientific Inc., USA) equipped with a HESI-II Spray source. For the LC analysis, an ACE® 5C18, 3 μm (2.1 × 50 mm) column was used. The mobile phases were (A) LC-grade® water containing 0.1% formic acid, and (B) LC grade acetonitrile containing 0.1% formic acid (B). This initial composition was increased to 95% solvent (B) for 3 minutes. The gradient program for HPLC used a flow rate of […]. […]"}, "thrombin": {"biological_target": "T2, thrombin (Homo sapiens, UniProt P00734)", "T2 construct": "thrombin solution (150 μL, 10 U/mL) was added; purchased Haematologic Technologies (Essex Junction, VT)", "experiment": "Thrombin activity assay (amidolytic activity, S-2238)", "type": "biochemical", "details": "α-Thrombin, chromogenic substrate; read-out: IC50, inhibition of amidolytic activity of thrombin (converted)", "description": "Following a 2-min incubation at 37 °C, thrombin solution (150 μL, 10 U/mL) was added, followed by incubation at 37 °C for 1 min. A solution of the thrombin substrate, S-2238, (150 μL, 1.5 mM) solution was subsequently added and the absorbance at 405 nm was monitored for 120 s using a spectrophotometer (TECAN, Männedorf, Switzerland)."}, "Trypsin": {"biological_target": "Trypsin", "experiment": "Chromogenic substrate assay, Ki (Dixon)", "type": "biochemical, human", "details": "Trypsin; mean ± SD (n = 5)", "method": "Chromogenic substrate assays were performed using a Labsystems IEMS (Cergy Pontoise, France) microtiter plate reader. K i values were calculated according to the method of Dixon[65]. In each assay, the compound was tested at a minimum of seven concentrations, in duplicate, to obtain an inhibition curve. The following general procedures were adopted for each assay. In a 96-well microtiter plate, 25 μL of inhibitor solution or buffer was added to 50 μL of substrate. The enzyme solution (25 μL) was added just before the plate was placed in the microtiter plate reader for 1 h at 37 °C. The hydrolysis of the substrate yields p-nitroaniline, which was continuously monitored spectrophotometrically at 405 nm. The maximal initial reaction rates were calculated and expressed as millioptical density per minute."}, "mouse platelet": {"tested_on": "mouse platelet", "experiment": "Ex vivo thrombin-induced platelet aggregation", "type": "in vivo", "details": "i.v. injection", "method": "The in vitro platelet aggregation study was performed according to a previously reported method[59],[62]. Washed human platelets were incubated with the indicated concentration of JJ1 in DMSO for 1, 3, 5, or 10 min and subsequently stimulated by thrombin in 0.9% saline solution at 37 °C for 5 min. Platelet aggregation was recorded using an aggregometer (Chronolog, Havertown, PA, USA). For the ex vivo aggregation assay, male mice were fasted overnight and the indicated concentration of JJ1 in DMSO was administered by i.v. injection. After 24 h, PRP (10^9 platelets/mL) in a total volume of 240 μL was incubated at 37 °C for 1.5 min in the aggregometer with continuous stirring at 1000 rpm and subsequently stimulated with thrombin. Platelet aggregation was recorded as described above."}, "[6]": {"details": "male C57BL/6 mice, 3.06 μg/mouse, 48 h after injection"}}}
{"smiles": "c1ccc2c(NC3CCCC3)nc(Nc3ccncc3)nc2c1", "note": "[JJ1]", "values": [{"measurement": "Prolongation of PT", "setting": "human plasma [1]", "value": 2.22, "unit": "fold"}, {"measurement": "Prolongation of aPTT", "setting": "human plasma [2]", "value": 2.17, "unit": "fold"}, {"measurement": "Selectivity ratio", "setting": "Urokinase; K i Urokinase/K i α-thrombin", "value": ">10,000"}, {"measurement": "Ki", "setting": "Urokinase; Urokinase", "value": "> 250", "unit": "µM"}, {"measurement": "Growth of thrombi (time to large thrombus formation)", "setting": "[3]; FeCl3-induced thrombosis", "value": "significantly slowed the growth of thrombi"}, {"measurement": "Thrombus size at 60 min after FeCl3-induced endothelial injury", "setting": "[3]", "value": "reduced FeCl3-induced thrombus formation"}, {"measurement": "Plasma levels of AST, ALT, BUN, and creatinine compared to DMSO-treated animals", "setting": "[4]; after 2 days", "value": "no significant differences"}, {"measurement": "ALT", "setting": "[4]; [6]", "value": "7.5 ± 0.63", "unit": "IU/L"}, {"measurement": "AST", "setting": "[4]; [6]", "value": "15.1 ± 1.29", "unit": "IU/L"}, {"measurement": "BUN", "setting": "[4]; [6]", "value": "17.1 ± 1.31"}, {"measurement": "Creatinine", "setting": "[4]; [6]", "value": "0.139 ± 0.012", "unit": "mg/dL"}, {"measurement": "Selectivity ratio", "setting": "Protein Ca; K i Protein Ca/K i α-thrombin", "value": ">10,000"}, {"measurement": "Ki", "setting": "Protein Ca; Protein Ca", "value": "> 250", "unit": "µM"}, {"measurement": "AUC", "setting": "[5]", "value": 6100, "unit": "ng·h/mL"}, {"measurement": "half-life", "setting": "[5]", "value": 3.1, "unit": "h"}, {"measurement": "IC50", "setting": "thrombin", "value": 0.15, "unit": "µM"}, {"measurement": "Ki", "setting": "Trypsin", "value": "> 250", "unit": "µM"}, {"measurement": "Mouse platelet aggregation induced by thrombin, ex vivo", "setting": "mouse platelet", "value": "confirmed in an ex vivo platelet aggregation assay"}]}
